Literature values, collected in patent publication US20010006673A1, “LUTEIN- CONTAINING SUPPLEMENT AND PROCESS FOR ENHANCING IMMUNE RESPONSE IN ANIMALS” (priority 1998, published 2001).

Key:
mouse splenocytes = conditions: cited from earlier work
Splenocytes = conditions: splenocytes from mice injected peritoneally; cited from earlier work
[1] = test system: tumor necrosis factor (TNF); conditions: hamsters; cited from earlier work
lymphocyte = conditions: rats; cited from earlier work
[2] = test system: chemical-induced carcinogenesis; conditions: mice; cited from earlier work
human neuroblastoma cell = conditions: cited from earlier work

| Compound | Ex vivo antibody response to T-dependent antigens (mouse splenocytes) | Antibody response to T-dependent antigens (Splenocytes) | further results |
| --- | --- | --- | --- |
| CC1=C(/C=C/C(C)=C/C=C/C(C)=C/C=C/C=C(C)/C=C/C=C(C)/C=C/C2=C(C)C(=O)[C@@H](O)CC2(C)C)C(C)(C)C[C@H](O)C1=O [astaxanthin] | increase | enhanced |  |
| CC1=C(/C=C/C(C)=C/C=C/C(C)=C/C=C/C=C(C)/C=C/C=C(C)/C=C/C2=C(C)C(=O)CCC2(C)C)C(C)(C)CCC1=O [canthaxanthin] |  |  | Production of tumor necrosis factor (TNF) by macrophages [1]: enhance; Lymphocyte proliferation (lymphocyte): increase; Chemical-induced carcinogenesis [2]: prevent |
| CC1=CCCC(C)(C)C1/C=C/C(C)=C/C=C/C(C)=C/C=C/C=C(C)/C=C/C=C(C)/C=C/C1=C(C)CCCC1(C)C (stereo not drawn) [α-carotene] |  |  | Human neuroblastoma cell proliferation (human neuroblastoma cell): inhibit |
| CC1=C(/C=C/C(C)=C/C=C/C(C)=C/C=C/C=C(C)/C=C/C=C(C)/C=C/C2=C(C)CCCC2(C)C)C(C)(C)CCC1 [β-carotene] | increase | enhanced |  |
